{
  "source": "ChEMBL document CHEMBL3244137",
  "about": "“Synthesis and antimicrobial activity of azasteroid-type compounds and related systems. Effect of hydrophilic and lipophilic groups on activity” (1977)",
  "format_in_all_cases": "functional",
  "key": {"[1]": {"tested_on": "Bacillus subtilis", "test": "Growth inhibition of Bacillus subtilis at 5 ug/ml", "conditions": "for inhibition at 5 µg/mL: Bacillus subtilis"}, "[2]": {"tested_on": "KB", "test": "Plating efficiency of human KB cells at 150 ug/ml"}, "[3]": {"tested_on": "Pseudomonas fluorescens", "test": "Growth inhibition of Pseudomonas fluorescens at 91 ug/ml"}, "[4]": {"tested_on": "KB", "test": "Growth inhibition of human KB cells at 12.5 ug/ml", "conditions": "read-out: GI"}, "[5]": {"tested_on": "KB", "test": "Growth inhibition of human KB cells at 150 ug/ml", "conditions": "read-out: GI"}, "[6]": {"tested_on": "KB", "test": "Plating efficiency of human KB cells at 25 ug/ml"}, "[7]": {"tested_on": "Bacillus subtilis", "test": "Growth inhibition of Bacillus subtilis at 91 ug/ml"}, "[8]": {"tested_on": "KB", "test": "Growth inhibition of human KB cells at 25 ug/ml", "conditions": "read-out: GI"}, "[9]": {"tested_on": "KB", "test": "Plating efficiency of human KB cells at 12.5 ug/ml"}, "[10]": {"tested_on": "Pseudomonas fluorescens", "test": "Growth inhibition of Pseudomonas fluorescens at 45 ug/ml"}, "[11]": {"tested_on": "Bacillus subtilis", "test": "Growth inhibition of Bacillus subtilis at 45 ug/ml"}, "[12]": {"tested_on": "Bacillus subtilis", "test": "Growth inhibition of Bacillus subtilis at 50 ug/ml"}, "[13]": {"tested_on": "Pseudomonas fluorescens", "test": "Growth inhibition of Pseudomonas fluorescens at 50 ug/ml"}, "[14]": {"tested_on": "KB", "test": "Plating efficiency of human KB cells at 50 ug/ml"}, "[15]": {"tested_on": "KB", "test": "Growth inhibition of human KB cells at 50 ug/ml", "conditions": "read-out: GI"}, "[16]": {"tested_on": "Pseudomonas fluorescens", "test": "Growth inhibition of Pseudomonas fluorescens at 90 ug/ml"}, "[17]": {"tested_on": "Pseudomonas fluorescens", "test": "Growth inhibition of Pseudomonas fluorescens at 5 ug/ml"}, "[18]": {"tested_on": "Bacillus subtilis", "test": "Growth inhibition of Bacillus subtilis at 90 ug/ml"}, "[19]": {"tested_on": "Bacillus subtilis", "test": "Growth inhibition of Bacillus subtilis at 10 ug/ml"}, "[20]": {"tested_on": "Bacillus subtilis", "test": "Growth inhibition of Bacillus subtilis at 20 ug/ml"}},
  "data": [
    {"smiles": "COc1ccc2c(c1)CCc1sc(N)nc1-2", "values": [
      {"measurement": "inhibition at 5 µg/mL", "setting": "[1]", "result": 40, "unit": "%"}
    ]},
    {"smiles": "COc1ccc2c(c1)CCc1cnoc1-2", "values": [
      {"measurement": "Activity", "setting": "[2]", "result": 0, "unit": "%"},
      {"measurement": "inhibition at 91 µg/mL", "setting": "[3]", "result": 0, "unit": "%"},
      {"measurement": "inhibition of growth at 12.5 µg/mL", "setting": "[4]", "result": 0, "unit": "%"},
      {"measurement": "inhibition of growth at 150 µg/mL", "setting": "[5]", "result": 100, "unit": "%"},
      {"measurement": "Activity", "setting": "[6]", "result": 67, "unit": "%"},
      {"measurement": "inhibition at 91 µg/mL", "setting": "[7]", "result": 100, "unit": "%"},
      {"measurement": "inhibition of growth at 25 µg/mL", "setting": "[8]", "result": 33, "unit": "%"},
      {"measurement": "Activity", "setting": "[9]", "result": 100, "unit": "%"}
    ]},
    {"smiles": "COc1ccc2c(c1)CCc1c[nH]nc1-2", "values": [
      {"measurement": "inhibition at 91 µg/mL", "setting": "[7]", "result": 0, "unit": "%"}
    ]},
    {"smiles": "OCCOc1ccc2c(c1)CCc1cn[nH]c1-2", "values": [
      {"measurement": "inhibition at 91 µg/mL", "setting": "[7]", "result": 0, "unit": "%"}
    ]},
    {"smiles": "CN(C)CCOc1ccc2c3c(ccc2c1)C(=O)CCC3", "values": [
      {"measurement": "inhibition at 91 µg/mL", "setting": "[7]", "result": 100, "unit": "%"}
    ]},
    {"smiles": "CN(C)CCOc1ccc2c(c1)CCc1cn[nH]c1-2", "values": [
      {"measurement": "inhibition at 91 µg/mL", "setting": "[7]", "result": 0, "unit": "%"}
    ]},
    {"smiles": "CCCCCCOc1ccc2c(c1)CCc1cn[nH]c1-2", "values": [
      {"measurement": "inhibition at 45 µg/mL", "setting": "[10]", "result": 0, "unit": "%"},
      {"measurement": "inhibition at 45 µg/mL", "setting": "[11]", "result": 100, "unit": "%"}
    ]},
    {"smiles": "CCCCCCCCCCCCCCCCOc1ccc2c(c1)CCc1cn[nH]c1-2", "values": [
      {"measurement": "inhibition at 91 µg/mL", "setting": "[7]", "result": 0, "unit": "%"}
    ]},
    {"smiles": "CCCCCCOc1ccc2c(c1)CCc1cnn([C@@H]3O[C@H](COC(C)=O)[C@@H](OC(C)=O)[C@H](OC(C)=O)[C@H]3OC(C)=O)c1-2", "values": [
      {"measurement": "inhibition at 91 µg/mL", "setting": "[3]", "result": 0, "unit": "%"},
      {"measurement": "inhibition at 50 µg/mL", "setting": "[12]", "result": 100, "unit": "%"},
      {"measurement": "inhibition at 50 µg/mL", "setting": "[13]", "result": 0, "unit": "%"},
      {"measurement": "inhibition at 91 µg/mL", "setting": "[7]", "result": 100, "unit": "%"}
    ]},
    {"smiles": "COc1ccc2c(c1)CCc1cnn([C@@H]3O[C@H](COC(C)=O)[C@@H](OC(C)=O)[C@H](OC(C)=O)[C@H]3OC(C)=O)c1-2", "values": [
      {"measurement": "inhibition at 91 µg/mL", "setting": "[3]", "result": 100, "unit": "%"},
      {"measurement": "Activity", "setting": "[14]", "result": 0, "unit": "%"},
      {"measurement": "inhibition at 5 µg/mL", "setting": "[1]", "result": 100, "unit": "%"},
      {"measurement": "inhibition at 91 µg/mL", "setting": "[7]", "result": 100, "unit": "%"},
      {"measurement": "inhibition of growth at 50 µg/mL", "setting": "[15]", "result": 100, "unit": "%"}
    ]},
    {"smiles": "CCCCCCOc1ccc2c(c1)CCc1cnn(CCN(CCCl)CCCl)c1-2", "values": [
      {"measurement": "inhibition at 5 µg/mL", "setting": "[1]", "result": 100, "unit": "%"}
    ]},
    {"smiles": "COc1ccc2c(c1)CCc1cnn(CCSCCCl)c1-2", "values": [
      {"measurement": "inhibition at 45 µg/mL", "setting": "[11]", "result": 100, "unit": "%"}
    ]},
    {"smiles": "CCCCCCOc1ccc2c(c1)CCc1cnoc1-2", "values": [
      {"measurement": "inhibition at 45 µg/mL", "setting": "[10]", "result": 0, "unit": "%"},
      {"measurement": "inhibition at 45 µg/mL", "setting": "[11]", "result": 0, "unit": "%"},
      {"measurement": "inhibition at 91 µg/mL", "setting": "[7]", "result": 100, "unit": "%"}
    ]},
    {"smiles": "COc1ccc2c(c1)CC[C@]1(C)C(=O)NN=C21", "values": [
      {"measurement": "inhibition at 91 µg/mL", "setting": "[7]", "result": 0, "unit": "%"}
    ]},
    {"smiles": "CCCCCCOc1ccc2c(c1)CC[C@]1(C)C(=O)NN=C21", "values": [
      {"measurement": "inhibition at 91 µg/mL", "setting": "[3]", "result": 0, "unit": "%"},
      {"measurement": "inhibition at 91 µg/mL", "setting": "[7]", "result": 0, "unit": "%"}
    ]},
    {"smiles": "CCCCCCOc1ccc2c(c1)CCc1sc(N)nc1-2", "values": [
      {"measurement": "inhibition (INH)", "setting": "[1]", "result": 100, "unit": "%"},
      {"measurement": "Activity", "setting": "[6]", "result": 0, "unit": "%"},
      {"measurement": "inhibition of growth at 25 µg/mL", "setting": "[8]", "result": 100, "unit": "%"}
    ]},
    {"smiles": "COc1ccc2c(c1)CCc1sc(N)nc1-2.Cl", "values": [
      {"measurement": "inhibition at 90 µg/mL", "setting": "[16]", "result": 25, "unit": "%"},
      {"measurement": "inhibition at 5 µg/mL", "setting": "[17]", "result": 0, "unit": "%"},
      {"measurement": "inhibition (INH)", "setting": "[1]", "result": 47, "unit": "%"},
      {"measurement": "inhibition at 90 µg/mL", "setting": "[18]", "result": 100, "unit": "%"}
    ]},
    {"smiles": "CCCCCCOc1ccc2c(c1)CCc1sc(N)nc1-2.Cl", "values": [
      {"measurement": "inhibition at 90 µg/mL", "setting": "[16]", "result": 25, "unit": "%"},
      {"measurement": "inhibition at 5 µg/mL", "setting": "[17]", "result": 11, "unit": "%"},
      {"measurement": "inhibition (INH)", "setting": "[1]", "result": 12, "unit": "%"},
      {"measurement": "inhibition at 90 µg/mL", "setting": "[18]", "result": 60, "unit": "%"}
    ]},
    {"smiles": "COc1ccc2c3c(ccc2c1)-c1[nH]ncc1CC3", "values": [
      {"measurement": "inhibition at 90 µg/mL", "setting": "[16]", "result": 48, "unit": "%"},
      {"measurement": "inhibition at 91 µg/mL", "setting": "[7]", "result": 7.8, "unit": "%"}
    ]},
    {"smiles": "CN(C)CCOc1ccc2c3c(ccc2c1)-c1[nH]ncc1CC3", "values": [
      {"measurement": "inhibition at 91 µg/mL", "setting": "[3]", "result": 0, "unit": "%"},
      {"measurement": "inhibition at 91 µg/mL", "setting": "[7]", "result": 100, "unit": "%"}
    ]},
    {"smiles": "CCCCCCOc1ccc2c3c(ccc2c1)-c1[nH]ncc1CC3", "values": [
      {"measurement": "inhibition at 91 µg/mL", "setting": "[7]", "result": 100, "unit": "%"}
    ]},
    {"smiles": "c1cnc2c(c1)-c1[nH]ncc1CC2", "values": [
      {"measurement": "inhibition at 10 µg/mL", "setting": "[19]", "result": 100, "unit": "%"},
      {"measurement": "inhibition at 90 µg/mL", "setting": "[16]", "result": 0, "unit": "%"}
    ]},
    {"smiles": "C[n+]1cccc2c1CCc1cn[nH]c1-2", "values": [
      {"measurement": "inhibition at 91 µg/mL", "setting": "[7]", "result": 50, "unit": "%"}
    ]},
    {"smiles": "COc1ccc2c(c1)CCc1cnn(CCN(CCCl)CCCl)c1-2", "values": [
      {"measurement": "inhibition at 20 µg/mL", "setting": "[20]", "result": 100, "unit": "%"}
    ]}
  ]
}
